Test results reported in patent publication US20260062426A1, “CYCLIN DEPENDENT KINASE DEGRADERS AND METHODS OF USE THEREOF” (Differentiated Therapeutics Inc, priority 2023, published 2026).

Legend:
Format in all cases: cell-based
CCNE1 = molecular target: T1, CCNE1 (Homo sapiens, UniProt P24864+P24941); assay: CCNE1 HIBIT PQ (protein quantification), degradation; settings: for CCNE1 HIBIT PQ Max (%): Max = Maximum; for DC50: PQ = Protein Quantification
T1 construct: host or cells: HEK293
In short: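 HEK293 cells with HiBiT-tagged CCNE1 were cultured in EMEM containing 10% FBS, plated at 1.6×10⁵ cells/well in 50 uL in 384-well plates and left overnight at 37° C with 5% CO₂. After 6 hours of compound exposure, a HiBiT assay measured CCNE1 protein, with 0.1% DMSO-treated cells as the high control and medium alone as the low control. DC50 and maximal degradation came from these readings.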

CDK9 = molecular target: T2, CDK9 (Homo sapiens, UniProt P50750); assay: CDK9 HIBIT PQ (protein quantification), degradation; settings: for Dmax / CDK9 HIBIT PQ Max (%): Max = Maximum; for DC50: PQ = Protein Quantification
T2 construct: host or cells: HEK293
In short: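 HEK293 cells bearing HiBiT-tagged CDK9 were cultured in DMEM with 10% FBS, plated into 384-well plates at 1.6×10^5 cells/well in 50 uL, and left overnight at 37° C and 5% CO2. A HiBiT assay measured CDK9 protein after compound treatment, with 0.1% DMSO-treated cells as the high control and culture medium alone as the low control. These readings gave the maximal degradation, Dmax and DC50.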

CDK2 = molecular target: T3, CDK2 (Homo sapiens, UniProt P24941); assay: CDK2 HIBIT PQ (protein quantification), degradation; settings: for CDK2 HIBIT PQ Max (%): Max = Maximum; for DC50: PQ = Protein Quantification
T3 construct: host or cells: HEK293
In short: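 DC50 and maximal degradation were derived from a HiBiT lytic readout in HEK293 cells carrying HiBiT-tagged CDK2. Cells were seeded in 384-well plates at 1.6×10^5 cells/well in 50 uL of DMEM with 10% FBS, incubated overnight at 37° C and 5% CO2, treated with compound for 6 hours, and then given 20 μL of HiBiT reagent with 20 minutes of shaking at room temperature before an EnVision reading. Wells with 0.1% DMSO served as the high control and wells with medium only as the low control.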

T2 sequence (P50750 whole entry): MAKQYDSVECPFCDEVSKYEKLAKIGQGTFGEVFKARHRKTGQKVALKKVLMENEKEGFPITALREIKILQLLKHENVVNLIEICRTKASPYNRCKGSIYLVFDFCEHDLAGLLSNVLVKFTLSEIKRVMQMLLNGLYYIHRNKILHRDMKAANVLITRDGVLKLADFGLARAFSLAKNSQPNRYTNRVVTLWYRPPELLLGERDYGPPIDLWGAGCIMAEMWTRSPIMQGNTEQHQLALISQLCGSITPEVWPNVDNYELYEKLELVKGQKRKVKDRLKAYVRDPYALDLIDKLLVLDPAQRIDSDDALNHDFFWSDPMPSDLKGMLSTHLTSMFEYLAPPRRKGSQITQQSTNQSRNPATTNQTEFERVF

## CC(C)Oc1c(-c2cn[nH]c2)ncn2nc(Nc3ccc(S(=O)(=O)N4CCCC(CN5CCC(c6ccc7c(N8CCC(=O)NC8=O)nn(C)c7c6)CC5)C4)cc3F)nc12 (racemic) [Compound 87, rac-(R)-1-(6-(1-((1-((3-fluoro-4-((8-isopropoxy-7-(1H-pyrazol-4-yl)-[1,2, 4]triazolo[1,5-c]pyrimidin-2-yl)amino)phenyl)sulfonyl)piperidin-3-yl)methyl)piperidin-4-yl)-1-methyl-1H-indazol-3-yl)dihydropyrimidine-2,4(1H,3H)-dione]
CCNE1
  CCNE1 HIBIT PQ Max (%): 79%
  DC50: 1.4 nM
CDK9
  Dmax: 72%
  DC50: 3.32 nM
CDK2
  CDK2 HIBIT PQ Max (%): 90%
  DC50: 0.4 nM

## CC(C)Oc1c(-c2cn[nH]c2)ncn2nc(Nc3ccc(S(=O)(=O)N4CCC[C@H](CN5CC[C@H](c6ccc7c(N8CCC(=O)NC8=O)nn(C)c7c6)CC5(C)C)C4)cc3F)nc12 (relative stereo) [Compound 97, rel-1-(6-((R)-1-(((S)-1-((3-fluoro-4-((8-isopropoxy-7-(1H-pyrazol-4-yl)-[1,2,4]triazolo[1,5-c]pyrimidin-2-yl)amino)phenyl)sulfonyl)piperidin-3-yl)methyl)-2,2-dimethylpiperidin-4-yl)-1-methyl-1H-indazol-3-yl)dihydropyrimidine-2,4(1H,3H)-dione]
CCNE1
  CCNE1 HIBIT PQ Max (%): 41%
CDK9
  Dmax: 19%
CDK2
  CDK2 HIBIT PQ Max (%): 68%
  DC50: 0.6 nM

## CC(C)Oc1c(-c2cn[nH]c2)ncn2nc(Nc3ccc(S(=O)(=O)N4CCCC(CN5CCC(c6ccc7c(N8CCC(=O)NC8=O)nn(C)c7c6)CC5)C4)cc3F)nc12 (single isomer, unassigned) [Compound 94]
CCNE1
  CCNE1 HIBIT PQ Max (%): 89%
  DC50: 1.55 nM
CDK9
  Dmax: 88%
  DC50: 5.2 nM
CDK2
  CDK2 HIBIT PQ Max (%): 92%
  DC50: 0.3 nM

## CC(C)Oc1c(-c2cn[nH]c2)ncn2nc(Nc3ccc(S(=O)(=O)N4CCCC(CN5CCC(c6ccc7c(N8CCC(=O)NC8=O)nn(C)c7c6)CC5)C4)cc3F)nc12 (single isomer, unassigned) [Compound 95]
CCNE1
  CCNE1 HIBIT PQ Max (%): 67%
  DC50: 1.02 nM
CDK9
  CDK9 HIBIT PQ Max (%): 71%
  DC50: 7.24 nM
CDK2
  CDK2 HIBIT PQ Max (%): 83%
  DC50: 0.5 nM

## CC(C)Oc1c(-c2cn[nH]c2)ncn2nc(Nc3ccc(S(=O)(=O)N4CCC[C@H](CN5CC[C@@H](c6ccc7c(N8CCC(=O)NC8=O)nn(C)c7c6)CC5(C)C)C4)cc3F)nc12 (single isomer, unassigned) [Compound 96]
CCNE1
  CCNE1 HIBIT PQ Max (%): 75%
  DC50: 3.16 nM
CDK9
  Dmax: 80%
  DC50: 8.05 nM
CDK2
  CDK2 HIBIT PQ Max (%): 87%
  DC50: 1 nM

## CC(C)Oc1c(-c2cn[nH]c2)ncn2nc(Nc3ccc(S(=O)(=O)c4cccc(C(C)N5CCN(c6ccc7c(N8CCC(=O)NC8=O)nn(C)c7c6)CC5)c4)cc3F)nc12 (single isomer, unassigned) [Compound 98]
CCNE1
  CCNE1 HIBIT PQ Max (%): 67%
  DC50: 12.7 nM
CDK9
  Dmax: 78%
  DC50: 34.8 nM
CDK2
  CDK2 HIBIT PQ Max (%): 95%
  DC50: 2.3 nM

## CC(C)Oc1c(-c2cn[nH]c2)ncn2nc(Nc3ccc(S(=O)(=O)c4cccc(C(C)N5CCN(c6ccc7c(N8CCC(=O)NC8=O)nn(C)c7c6)CC5)c4)cc3F)nc12 (single isomer, unassigned) [Compound 99]
CCNE1
  CCNE1 HIBIT PQ Max (%): 52%
  DC50: 10.2 nM
CDK9
  CDK9 HIBIT PQ Max (%): 64%
  DC50: 37.3 nM
CDK2
  CDK2 HIBIT PQ Max (%): 94%
  DC50: 3 nM

## CC(C)Oc1c(-c2cn[nH]c2)ncn2nc(Nc3ccc(S(=O)(=O)c4cccc(C(C)N5CCC(c6ccc7c(N8CCC(=O)NC8=O)nn(C)c7c6)CC5)c4)cc3F)nc12 (single isomer, unassigned) [Compound 100]
CCNE1
  CCNE1 HIBIT PQ Max (%): 80%
  DC50: 14.3 nM
CDK9
  Dmax: 86%
  DC50: 12.4 nM
CDK2
  CDK2 HIBIT PQ Max (%): 90%
  DC50: 2.9 nM

## CC(C)Oc1c(-c2cn[nH]c2)ncn2nc(Nc3ccc(S(=O)(=O)c4cccc(C(C)N5CCC(c6ccc7c(N8CCC(=O)NC8=O)nn(C)c7c6)CC5)c4)cc3F)nc12 (single isomer, unassigned) [Compound 101]
CCNE1
  CCNE1 HIBIT PQ Max (%): 77%
  DC50: 13.9 nM
CDK9
  CDK9 HIBIT PQ Max (%): 82%
  DC50: 10.6 nM
CDK2
  CDK2 HIBIT PQ Max (%): 90%
  DC50: 2.6 nM

## CC(C)Oc1c(-c2cn[nH]c2)ncn2nc(Nc3ccc(S(=O)(=O)N4CCC[C@H](CN5CC[C@@H](c6ccc7c(N8CCC(=O)NC8=O)nn(C)c7c6)CC5(C)C)C4)cc3F)nc12 (single isomer, unassigned) [Compound 102]
CCNE1
  CCNE1 HIBIT PQ Max (%): 76%
  DC50: 1.34 nM
CDK9
  CDK9 HIBIT PQ Max (%): 75%
  DC50: 5.65 nM
CDK2
  CDK2 HIBIT PQ Max (%): 90%
  DC50: 0.5 nM

## CC(C)Oc1c(-c2cn[nH]c2)ncn2nc(Nc3ccc(S(=O)(=O)N4CCC[C@@H](CN5CC[C@H](c6ccc7c(N8CCC(=O)NC8=O)nn(C)c7c6)CC5(C)C)C4)cc3F)nc12 (single isomer, unassigned) [Compound 103]
CCNE1
  CCNE1 HIBIT PQ Max (%): 83%
  DC50: 1.96 nM
CDK9
  Dmax: 92%
  DC50: 4.01 nM
CDK2
  CDK2 HIBIT PQ Max (%): 90%
  DC50: 1 nM

## CC(C)Oc1c(-c2cn[nH]c2)ncn2nc(Nc3ccc(S(=O)(=O)N4CCC[C@H](CN5CC[C@H](c6ccc7c(N8CCC(=O)NC8=O)nn(C)c7c6)CC5(C)C)C4)cc3F)nc12 (single isomer, unassigned) [Compound 104]
CCNE1
  CCNE1 HIBIT PQ Max (%): 48%
CDK9
  Dmax: 13%
CDK2
  CDK2 HIBIT PQ Max (%): 75%
  DC50: 1 nM

## CC(C)Oc1c(-c2cn[nH]c2)ncn2nc(Nc3ccc(S(=O)(=O)N4CCC[C@@H](CN5CC[C@@H](c6ccc7c(N8CCC(=O)NC8=O)nn(C)c7c6)CC5(C)C)C4)cc3F)nc12 (single isomer, unassigned) [Compound 105]
CCNE1
  CCNE1 HIBIT PQ Max (%): 24%
CDK9
  Dmax: 25%
CDK2
  CDK2 HIBIT PQ Max (%): 63%
  DC50: 0.9 nM

## CC(C)Oc1c(-c2cn[nH]c2)ncn2nc(Nc3ccc(S(=O)(=O)c4cccc(C[C@H]5C[C@@H](c6ccc7c(c6)CN([C@@H]6CCC(=O)NC6=O)C7=O)C5)c4)cc3F)nc12 (stereo in doubt) [Compound 79, (R)-3-(5-((1r,3S)-3-(3-((3-fluoro-4-((8-isopropoxy-7-(1H-pyrazol-4-yl)-[1,2,4]triazolo[1,5-c]pyrimidin-2-yl)amino)phenyl)sulfonyl)benzyl)cyclobutyl)-1-oxoisoindolin-2-yl)piperidine-2,6-dione]
CCNE1
  CCNE1 HIBIT PQ Max (%): 84%
  DC50: 13.1 nM
CDK9
  Dmax: 26%
CDK2
  CDK2 HIBIT PQ Max (%): 96%
  DC50: 5.9 nM

## CC(C)Oc1c(-c2cn[nH]c2)ncn2nc(Nc3ccc(S(=O)(=O)c4cccc(C[C@H]5C[C@H](c6ccc7c(c6)CN([C@@H]6CCC(=O)NC6=O)C7=O)C5)c4)cc3F)nc12 (stereo in doubt) [Compound 80, (R)-3-(5-((1s,3R)-3-(3-((3-fluoro-4-((8-isopropoxy-7-(1H-pyrazol-4-yl)-[1,2,4]triazolo[1,5-c]pyrimidin-2-yl)amino)phenyl)sulfonyl)benzyl)cyclobutyl)-1-oxoisoindolin-2-yl)piperidine-2,6-dione]
CCNE1
  CCNE1 HIBIT PQ Max (%): 85%
  DC50: 20.3 nM
CDK9
  Dmax: 49%
CDK2
  CDK2 HIBIT PQ Max (%): 98%
  DC50: 3.9 nM
